Measurements as given in ChEMBL document CHEMBL3751730, “Synthesis and in vitro antitumor evaluation of dihydroartemisinin-cinnamic acid ester derivatives” (Eur J Med Chem, 2016).
Activity calls are given as the source filed them. The calls are words filed in the database; no cut-off is given here.

Tests used:
A549 [1] = assay: Antiproliferative activity against human A549 cells at 0.40 uM after 72 hrs by MTT assay in presence of 0.20 uM 9alpha-DHA; type: functional, cell-based
A549 [2] = assay: Antiproliferative activity against human A549 cells at 0.40 uM after 72 hrs by MTT assay; type: functional, cell-based
[3] = Selectivity index, ratio of IC50 for human L02 cells to IC50 for human A549 cells; type: functional
A549 [4] = assay: Antiproliferative activity against human A549 cells after 72 hrs by MTT assay; type: functional, cell-based; conditions: A549, 72 h
A549 [5] = assay: Induction of apoptosis in human A549 cells assessed as early apoptotic cells at 30 uM after 48 hrs by Annexin V/propidium iodide staining based flow cytrometric analysis in presence of 5 mM NAC (reference value: 0.63%); type: functional
[6] = Antiproliferative activity against human PC3 cells after 72 hrs by MTT assay; type: functional, cell-based; conditions: PC-3, 72 h
A549 [7] = assay: Induction of reactive oxygen species generation in human A549 cells at 30 uM measured for 20 hrs by DCFH-DA staining based fluorescence assay in presence of 3 uM DFO; type: functional, cell-based
A549 [8] = assay: Induction of apoptosis in human A549 cells assessed as nuclear rounding at 10 uM after 48 hrs by Hoechst 33258 staining based fluorescence microscopic analysis; type: functional, cell-based
A549 [9] = assay: Induction of apoptosis in human A549 cells assessed as early apoptotic cells at 30 uM after 48 hrs by Annexin V-FITC/propidium iodide staining based flow cytrometric analysis (reference value: 0.63%); type: functional
[10] = Induction of apoptosis in human L02 cells assessed as reactive oxygen species formation at 10 uM after 48 hrs by DCFH-DA staining based fluorescence microscopic analysis; type: cell-based; conditions: l02, 48 h
A549 [11] = assay: Induction of apoptosis in human A549 cells assessed as early apoptotic cells at 3 uM after 48 hrs by Annexin V-FITC/propidium iodide staining based flow cytrometric analysis (reference value: 0.63%); type: functional
A549 [12] = assay: Induction of apoptosis in human A549 cells assessed as reactive oxygen species formation at 30 uM by DCFH-DA staining based FLIPR assay; type: functional, cell-based; conditions: TDE = time-dependent effect
A549 [13] = assay: Induction of apoptosis in human A549 cells assessed as cell shrinkage at 30 uM after 48 hrs by Hoechst 33258 staining based fluorescence microscopic analysis; type: functional
[14] = Antiproliferative activity against human SGC7901 cells after 72 hrs by MTT assay; type: functional, cell-based; conditions: SGC-7901, 72 h
A549 [15] = assay: Cytotoxicity against human A549 cells assessed as cell viability at 3 to 30 uM after 48 hrs by MTT assay in presence of 3 uM DFO; type: functional, cell-based
[16] = Cytotoxicity against human L02 cells after 72 hrs by MTT assay; type: cell-based; conditions: L02, 72 h
A549 [17] = assay: Induction of apoptosis in human A549 cells assessed as nuclei blebbing at 3 uM after 48 hrs by Hoechst 33258 staining based fluorescence microscopic analysis; type: functional, cell-based
A549 [18] = assay: Induction of apoptosis in human A549 cells after 48 hrs by Annexin V-FITC/propidium iodide staining based flow cytometric analysis; type: functional, cell-based
A549 [19] = assay: Induction of apoptosis in human A549 cells assessed as reactive oxygen species formation after 48 hrs by DCFH-DA staining based fluorescence microscopic analysis; type: functional, cell-based
A549 [20] = assay: Induction of apoptosis in human A549 cells assessed as nuclear rounding at 3 uM after 48 hrs by Hoechst 33258 staining based fluorescence microscopic analysis; type: functional, cell-based
[21] = Induction of apoptosis in human L02 cells assessed as reactive oxygen species formation at 30 uM after 48 hrs by DCFH-DA staining based fluorescence microscopic analysis; type: cell-based; conditions: l02, 48 h
A549 [22] = assay: Induction of apoptosis in human A549 cells assessed as cell shrinkage at 10 uM after 48 hrs by Hoechst 33258 staining based fluorescence microscopic analysis; type: functional
A549 [23] = assay: Induction of apoptosis in human A549 cells assessed as early apoptotic cells at 30 uM after 48 hrs by Annexin V/propidium iodide staining based flow cytometric analysis in presence of 3 uM DFO (reference value: 0.63%); type: functional
A549 [24] = assay: Induction of apoptosis in human A549 cells assessed as nuclei blebbing at 10 uM after 48 hrs by Hoechst 33258 staining based fluorescence microscopic analysis; type: functional, cell-based
A549 [25] = assay: Antiproliferative activity against human A549 cells at 0.20 uM after 72 hrs by MTT assay; type: functional, cell-based
A549 [26] = assay: Induction of apoptosis in human A549 cells assessed as early apoptotic cells at 30 uM after 48 hrs by Annexin V/propidium iodide staining based flow cytrometric analysis in absence of 5 mM NAC (reference value: 0.63%); type: functional
A549 [27] = assay: Induction of apoptosis in human A549 cells assessed as cell viability at 3 to 30 uM after 48 hrs by MTT assay in presence of 5 mM NAC; type: functional, cell-based
[28] = Antiproliferative activity against human MDA-MB-435S cells after 72 hrs by MTT assay; type: functional, cell-based
A549 [29] = assay: Induction of apoptosis in human A549 cells assessed as nuclear rounding at 30 uM after 48 hrs by Hoechst 33258 staining based fluorescence microscopic analysis; type: functional, cell-based
A549 [30] = assay: Induction of apoptosis in human A549 cells assessed as early apoptotic cells at 30 uM after 48 hrs by Annexin V/propidium iodide staining based flow cytometric analysis in the absence of 3 uM DFO (reference value: 0.63%); type: functional
A549 [31] = assay: Induction of apoptosis in human A549 cells assessed as cell shrinkage at 3 uM after 48 hrs by Hoechst 33258 staining based fluorescence microscopic analysis; type: functional
A549 [32] = assay: Induction of apoptosis in human A549 cells assessed as early apoptotic cells at 10 uM after 48 hrs by Annexin V-FITC/propidium iodide staining based flow cytrometric analysis (reference value: 0.63%); type: functional
[33] = Induction of apoptosis in human L02 cells assessed as reactive oxygen species formation at 30 uM measured for 20 hrs by DCFH-DA staining based FLIPR assay; type: cell-based; conditions: l02, 20 h
A549 [34] = assay: Induction of apoptosis in human A549 cells assessed as nuclei blebbing at 30 uM after 48 hrs by Hoechst 33258 staining based fluorescence microscopic analysis; type: functional, cell-based
A549 [35] = assay: Antiproliferative activity against human A549 cells at 0.20 uM after 72 hrs by MTT assay in presence of 0.40 uM 3,4-dimethoxycinnamic acid; type: functional, cell-based
[36] = Drug degradation at 2 to 4 mg at 210 to 220 degC by thermogravimetric analysis in the presence of nitrogen gas; type: physicochemical; conditions: in vivo; read-out: Drug degradation
[37] = Chemical stability of the compound at 2 to 4 mg at 25 to 300 degC by differential scanning […] analysis in the presence of nitrogen gas; type: physicochemical

In the case of `COc1ccc(/C=C/C(=O)O)cc1OC`, the Activity (A549 [1]) is reported as “inactive” and the Activity (A549 [2]) is reported as “inactive”.

In the case of `COc1ccc(/C=C/C(=O)O[C@@H]2O[C@@H]3O[C@@]4(C)CC[C@H]5[C@H](C)[C@H](OC(=O)/C=C/c6ccc(OC)c(OC)c6)C[C@@H]([C@H]2C)[C@@]35OO4)cc1OC`, the “Ratio IC50” value [3] is reported as 401.25, the IC50 (A549 [4]) is reported as 0.2 µM and the Activity (A549 [5]) is reported as 4.71%. For the same compound, the IC50 [6] was 22.7 µM, the Activity (A549 [7]) was “inactive” and the Activity (A549 [8]) was “Active”. For the same compound, the Activity (A549 [9]) was 16.88%, the Activity [10] was “Non-toxic” and the Activity (A549 [11]) was 4.33%. For the same compound, the Activity (A549 [12]) was “tde”, the Activity (A549 [13]) was “Active” and the IC50 [14] was 4.94 µM. For the same compound, the Activity (A549 [15]) was “inactive”, the IC50 [16] was 80.2 µM and the Activity (A549 [17]) was “Active”. The Activity (A549 [18]) was “Dose-dependent effect”, the Activity (A549 [19]) was “Dose-dependent effect” and the Activity (A549 [20]) was “Active”. The Activity [21] was “Non-toxic”, the Activity (A549 [22]) was “Active” and the Activity (A549 [23]) was 2.17%. The Activity (A549 [24]) was “Active”, the Activity (A549 [25]) was “Active” and the Activity (A549 [26]) was 16.88%. For the same compound, the Activity (A549 [27]) was “inactive”, the IC50 [28] was 6.23 µM and the Activity (A549 [29]) was “Active”. For the same compound, the Activity (A549 [30]) was 16.88%, the Activity (A549 [31]) was “Active” and the Activity (A549 [32]) was 14.01%. For the same compound, the Activity [33] was “Non-toxic” and the Activity (A549 [34]) was “Active”.

For `C[C@@H]1[C@H](O)C[C@H]2[C@@H](C)[C@@H](O)O[C@@H]3O[C@@]4(C)CC[C@@H]1[C@]32OO4`, the IC50 (A549 [4]) was over 100 µM, the IC50 [6] was over 100 µM and the Activity (A549 [35]) was “inactive”. The IC50 [14] was over 100 µM, the Activity (A549 [25]) was “inactive” and the IC50 [28] was 57.8 µM.

For `COc1cc(/C=C/C(=O)O[C@@H]2O[C@@H]3O[C@@]4(C)CC[C@H]5[C@H](C)[C@H](OC(=O)/C=C/c6cc(OC)c(OC)c(OC)c6)C[C@@H]([C@H]2C)[C@@]35OO4)cc(OC)c1OC`, the “Ratio IC50” value [3] was 117.3, the IC50 (A549 [4]) was 0.5 µM and the IC50 [6] was 17.2 µM. The IC50 [14] was 11.8 µM, the IC50 [16] was 58.6 µM and the IC50 [28] was 5.33 µM. The degraded [36] was 1% and the Stability [37] was “Stable”.
